Earlier results in patent US20260275282A1, “CELLS BEING HIGHLY ENRICHED IN SASP FACTORS, AND COMPOSITION COMPRISING SAID CELLS” (EVOMEDIS GMBH, priority 2022, published 2026).
Peptide text beside a SMILES is read from it.

tested on: proteasome; settings: Inhibitor of proteasome; read-out: Concentration (IC50)

| IC50 [nM] | Compound |
| --- | --- |
| […] | CC(C)C[C@H](NC(=O)[C@H](Cc1ccccc1)NC(=O)c1cnccn1)B(O)O [Bortezomib] |

tested on: microtubules assembly; settings: half of the maximal concentration necessary to inhibit the microtubules assembly

| IC50 [nM] | Compound |
| --- | --- |
| 0.8 | CC[C@]1(O)C[C@H]2CN(CCc3c([nH]c4ccccc34)[C@@](C(=O)OC)(c3cc4c(cc3OC)N(C=O)[C@H]3[C@@](O)(C(=O)OC)[C@H](OC(C)=O)[C@]5(CC)C=CCN6CC[C@]43[C@@H]65)C2)C1 [Vincristine] |
| 8 | CC(=O)O[C@H]1C(=O)[C@@]2(C)[C@H]([C@H](OC(=O)c3ccccc3)[C@]3(O)C[C@H](OC(=O)[C@H](O)[C@@H](NC(=O)c4ccccc4)c4ccccc4)C(C)=C1C3(C)C)[C@]1(OC(C)=O)CO[C@@H]1C[C@@H]2O [Paclitaxel (Taxol), Paclitaxel] |
| 0.8 | CCC1=C[C@@H]2CN(C1)Cc1c([nH]c3ccccc13)[C@@](C(=O)OC)(c1cc3c(cc1OC)N(C)[C@H]1[C@@](O)(C(=O)OC)[C@H](OC(C)=O)[C@]4(CC)C=CCN5CC[C@]31[C@@H]54)C2 [Vinorelbine] |
| 0.8 | CC[C@]1(O)C[C@@H]2CN(CCc3c([nH]c4ccccc34)[C@@](C(=O)OC)(c3cc4c(cc3OC)N(C)[C@H]3[C@@](O)(C(N)=O)[C@H](O)[C@]5(CC)C=CCN6CC[C@]43[C@@H]65)C2)C1 [Vindesine] |
| 0.8 | CC[C@]1(O)C[C@@H]2CN(CCc3c([nH]c4ccccc34)[C@@](C(=O)OC)(c3cc4c(cc3OC)N(C)[C@H]3[C@@](O)(C(=O)OC)[C@H](OC(C)=O)[C@]5(CC)C=CCN6CC[C@]43[C@@H]65)C2)C1 [Vinblastine] |

| Compound | IC50 [nM] |
| --- | --- |
| CC[C@]12C=CCN3CC[C@@]4(c5cc([C@@]6(C(=O)OC)C[C@@H]7C[C@@H](C(C)(F)F)CN(Cc8c6[nH]c6ccccc86)C7)c(OC)cc5N(C)[C@H]4[C@@](O)(C(=O)OC)[C@@H]1OC(C)=O)[C@@H]32 [Vinflunine] | 0.8 |
| C/C1=C/C[C@@H](/C(C)=C/c2csc(C)n2)OC(=O)C[C@H](O)C(C)(C)C(=O)[C@H](C)[C@@H](O)[C@@H](C)CCC1 [Desoxyepothilone B] | 13 |
| COC(=O)Nc1nc2ccc(C(=O)c3cccs3)cc2[nH]1 [Nocodazole] | 0.8 |

tested on: autophagy; settings: BH3 domain mimetics; read-out: Concentration (IC50)

| IC50 [nM] | Compound |
| --- | --- |
| 5000 to 10000 | CN(C)CC[C@H](CSc1ccccc1)Nc1ccc(S(=O)(=O)NC(=O)c2ccc(N3CCN(Cc4ccccc4-c4ccc(Cl)cc4)CC3)cc2)cc1[N+](=O)[O-] [ABT-737] |

tested on: protein secretion (SASP factor secretion); settings: 1 mM extracellular Ca2 - calcium dependent

| Compound | Concentration |
| --- | --- |
| CCCC[C@@H](C=O)NC(=O)[C@H](CC(C)C)NC(=O)OCc1ccccc1 [Calpeptin] | 80 μM (1 mM |

same assay, conditions: + 2-5 nM Vinblastine; actin depolymerizer with microtubule targeting-agent

| Compound | Concentration in combination with Vinblastine [mM + 2-5 nM] |
| --- | --- |
| Methyl-β-cyclodextrin | 1 |

same assay, conditions: concentration range that results in significant reduction, preferably inhibition, of SASP factor secretion

| Compound | Concentration [µM] |
| --- | --- |
| Cn1cnc(N)c2ncnc1-2 [3-Methyladenine] | 5000 |
| C[C@@H](N)[C@H]1CC[C@H](C(=O)Nc2ccncc2)CC1 [Y27632] | 5 |
| Cyclclosporine A | 10 to 40 |
| O=C(CCCN1CCC2(CC1)C(=O)NCN2c1ccccc1)c1ccc(F)cc1 [Spiperone] | 10 to 20 |
| Fc1ccc([C@@H]2CCNC[C@H]2COc2ccc3c(c2)OCO3)cc1 [Paroxetine] | 10 to 20 |
| CSCC[C@@H](C=O)NC(=O)[C@H](CC(C)C)NC(=O)[C@H](CC(C)C)NC(C)=O [Calpain inhibitor II, N-acetyl-leucyl-leucyl-methioninal] (Ac-Leu-Leu-Met-aldehyde) | 10 |
| CC(=O)N[C@@H](CC(C)C)C(=O)N[C@@H](CC(C)C)C(=O)N[C@H](C=O)CCCNC(=N)N [Leupeptin] | 0.08 to 0.096 |
| NC(=O)N1CCC(CC(=O)N2CCC([C@H]3c4ncc(Br)cc4CCc4cc(Cl)cc(Br)c43)CC2)CC1 [Lonafarnib] | 5 |
| CNCCC(Oc1ccc(C(F)(F)F)cc1)c1ccccc1 (centres unmarked) [Fluoxetine] | 30 to 100 |
| Oc1ccc(C=Cc2cc(O)cc(O)c2)cc1 [Resveratrol] | 12.5 to 50 |
| CC(NCCC(c1ccccc1)c1ccccc1)c1ccccc1 (centres unmarked) [Fendiline] | 1 to 100 |
| CN[C@H]1CC[C@@H](c2ccc(Cl)c(Cl)c2)c2ccccc21 [Sertraline] | 10 |
| O=CC[C@@H](O)[C@H](O)[C@H](O)CO [2-Deoxyglucose] | 50000 |
| COc1ccc(CCN2CCC(Nc3nc4ccccc4n3Cc3ccc(F)cc3)CC2)cc1 [Astemizole] | 20 to 40 |
| CNC(=O)c1cc(Oc2ccc(NC(=O)Nc3ccc(Cl)c(C(F)(F)F)c3)cc2)ccn1 [Sorafenib] | 5 to 10 |
| CC[C@@]1([C@@H]2O[C@@H]([C@H]3O[C@@](O)(CO)[C@H](C)C[C@@H]3C)C[C@@H]2C)CC[C@H]([C@]2(C)CC[C@]3(C[C@H](O)[C@@H](C)[C@@H]([C@@H](C)[C@@H](OC)[C@H](C)C(=O)O)O3)O2)O1 [Monensin] | 10 |
| C[C@@H]1CN2CCC[C@H]3CCCCCC[C@H]4CCN5CCC[C@@](O)(CCCCCC[C@@H]1O[C@H]32)[C@H]5O4 [Xestospongin B] | 0.08 to 10 |
| CCCCc1ccc2[nH]c(NC(=O)OC)nc2c1 [Parbendazole] | 10 |
| CN(C)C(=N)N=C(N)N [Metformin] | 5 |
| COc1cc2c(c(OC)c1OC)-c1ccc(OC)c(=O)cc1[C@@H](NC(C)=O)CC2 [Colchicine] | 2 to 5 |
| C1CCC(C(CC2CCCCN2)C2CCCCC2)CC1 (centres unmarked) [Perhexiline] | 10 |
| CCCC[C@@H](C)/C=C(C)/C=C(\C)C(=O)NC1=C[C@@](O)(/C=C/C=C/C=C/C(=O)NC2=C(O)CCC2=O)[C@@H]2O[C@@H]2C1=O [Manumycin A] | 1 |
| CC(Oc1ccc(O)cc1)(P(=O)(O)O)P(=O)(O)O [L-690,330] | 100 |
| CN(C)CCCN1c2ccccc2CCc2ccccc21 [Imipramine] | 1 |

tested on: PI3K-mTOR; settings: Dual inhibitor of PI3K-mTOR; read-out: Concentration (IC50)

| IC50 [nM] | Compound |
| --- | --- |
| 8 to 150 | Oc1cccc(-c2nc(N3CCOCC3)c3oc4ncccc4c3n2)c1 [PI-103] |

tested on: kinesin; settings: Kinesin inhibitors: Group V; read-out: Concentration (IC50)

| Compound | IC50 [nM] |
| --- | --- |
| Cc1ccc(C(=O)N(CCCN)[C@@H](c2nc3cc(Cl)ccc3c(=O)n2Cc2ccccc2)C(C)C)cc1 [Ispinesib (SB715992), Ispinesib] | 10000 to 30000 |
